In PubChem BioAssay AID588844 (Broad Institute, 2011):
Activity calls are given as the source filed them. How the calls were made is not given here.

Tested on: HMLE_shECad viability, CellTiter-Glo luminescence, 72 h
Experiment: cytotoxicity toward E-cadherin-knockdown HMLE CSC-like cells – cell-based, CellTiter-Glo luminescence, dry powder, set 2, dose response (AID 588844)
Conditions: not given

Question: With `Cc1csc(NC(=O)c2ccc(COc3ccccc3F)o2)n1` as the molecule, how does the AC50 read?
Answer: 2430 nM

Question: With `Cc1csc(NC(=O)c2ccc(COc3cccc(Cl)c3)o2)n1` as the molecule, how does the AC50 read?
Answer: 3000 nM

Question: For `Cc1csc(NC(=O)c2ccc(COc3ccccc3)o2)n1`, which AC50 is on record?
Answer: 70 nM

Question: For `O=C(/C=C/c1ccc(-c2ccccc2)cc1)NC1=NCCS1`, which AC50 is on record?
Answer: 625 nM

Question: For `CC(C)c1ccc(/C=C/C(=O)NC2=NCCS2)cc1`, which AC50 is on record?
Answer: 300 nM

Question: For `O=C(NC1CCCC1)c1ccc(COc2ccccc2)o1`, which AC50 is on record?
Answer: 23500 nM

Tested on: not listed separately
Experiment: as above
Conditions: HMLE_shECad viability, CellTiter-Glo luminescence, 72 h; at 32 µM (top of the series)

Question: For `COc1ccc(/C=C/C(=O)NC2=NCCS2)c(OC)c1`, which remaining viability fraction is on record?
Answer: 70.8% (inactive)

Question: With `Cc1ccc(/C=C/C(=O)NC2=NCCS2)cc1` as the molecule, how does the remaining viability fraction read?
Answer: 75.7% (inactive)

Question: Which remaining viability fraction does the source give for `Cc1csc(NC(=O)c2ccc(COc3cccc(F)c3)o2)n1` here?
Answer: 65.6% (inactive)
